Experimental data taken from US5002773A, “Transdermal delivery of (+) (2S,3S)-3-acetoxy-8-chloro-5-(2-dimethylaminoethyl)-2,3-dihydro-2-(4-met hoxyphenyl)-1,5-benzothiazepin-4-(5H)-one” (Marion Merrell Dow Inc., priority 1989, dated 1991).
Converted amounts (≈) assume the structure as drawn. Structures can show the parent of a compound that is named as a salt.

Tests used:
[1] = Intrinsic in-vitro skin permeability of diltiazem (side-by-side diffusion cell); format: in vitro ADME, hairless mouse; conditions: skin permeation rate/solubility, mean and SD, n=3
Method: About 2.5 cm×2.5 cm portion of freshly excised hairless mouse skin (5-7 week old, male) prepared as described in Example 4 above, was mounted between the two chambers of the side-by-side diffusion cell and securely clamped. […] 5% Trycol® solution in normal saline, prepared as described in Example 4 above, was introduced into the receptor compartment (the side facing the dermis side of the skin). Both donor and receptor compartments were maintained at 37° C. by a thermostatically controlled circulating water bath. At predetermined time intervals (usually at 3, 6, 12 and 24 hours) the entire volume of the receptor solution was withdrawn and immediately replaced with the same volume of fresh, drug-free Trycol® solution at 37° C. to maintain the […]. […] Slope of this line gave the value of skin permeation rate (mcg/cm^2 /hr).

[2] = literature statement; cited from earlier work
[3] = Method: The model used is an in-vitro excised hairless mouse skin model which is known in the art. The permeation rates of TA-3090 through the excised skin were measured using a Franz diffusion cell.
In-vitro evaluation of transdermal patches was accomplished using an excised hairless mouse/Franz diffusion cell model (available from Crown Glass Company, Somerville, N.J.) as follows. Immediately following sacrifice by cervical dislocation (or by CO2 gas), a portion (about 3.5 cm×3.5 cm) of the full-thickness abdominal skin was carefully excised from the hairless mouse (5-7 week old, male). The dermal side of the skin was carefully cleaned of any adhering subcutaneous tissue and/or blood vessels. […]
At a predetermined time interval (usually 4, 8, 12 and 24 hours), the entire volume of the receptor solution was withdrawn and immediately replaced with the same volume of the fresh, drug-free Trycol solution at 37° C. to maintain the sink condition. The concentration of TA-3090 in the sample was determined by a sensitive HPLC method. From the concentration profiles of TA-3090 in the receptor compartment, the flux (mcg/cm^2) of skin permeation was calculated using a computer program and then plotted as a function of time (hour). […]

[4] = Intrinsic in-vitro skin permeability of TA-3090 at various pH conditions (side-by-side diffusion cell); format: in vitro ADME, hairless mouse; conditions: for Papp: mouse, skin permeation rate/solubility, mean and SD, n=3
Method: (§1) TA-3090 skin permeability was determined using a freshly excised hairless mouse skin and a side-by-side type of diffusion cell (available from Crown Glass Co., Somerville, N.J.). About 2.5 cm×2.5 cm portion of freshly excised hairless mouse skin (5-7 week old, male), prepared as described in Example 4, was mounted between the two chambers of the side-by-side diffusion cell and securely clamped. Saturated solution (with some extra drug in suspension state) of TA-3090 free base in phosphate buffer solution maintained at a particular pH was introduced into the donor side (the side facing the stratum corneum). 5% Trycol® solution in normal saline, prepared as described in Example 4, was introduced in the receptor compartment (the side facing the dermis side of the skin). Both donor and receptor compartments were maintained at 37° C. by a thermostatically controlled circulating water bath. At predetermined time intervals (usually at 3, 6, 12 and 24 hours) the entire volume of the receptor solution was withdrawn and immediately replaced with the same volume of the fresh, drug-free Trycol® solution at 37° C. to maintain the sink condition. […] From the concentration profiles of TA-3090 in the receptor compartment, the flux (mcg/cm^2) of skin permeation was calculated using a computer program and then plotted as a function of time (hour). Slope of this line gave the value of skin permeation rate (mcg/cm^2 /hr).

[5] = Solubility of TA-3090 in donor solution; format: physicochemical; conditions: aqueous buffer, phosphate buffer, 37° C., mean and SD, n=3
Method: as §1

[6] = Aqueous solubility of TA-3090 free base with 5% PEG 20 Oleyl ether; format: physicochemical; conditions: with 5% PEG 20 Oleyl ether as solubilizer
Method: The aqueous solubility of TA-3090 free base was improved by the incorporation of 5% PEG 20 Oleyl ether as a solubilizer to maintain an effective sink condition required in the investigation, which simulates the biological sink achieved by hemoperfusion. […] Following this, the saline solution containing 5% w/w PEG 20 Oleyl ether (Trycol®) at 37° C. was introduced into the receptor compartment, which was thermostatically controlled at 37° C. by a circulating water bath.

[7] = once-a-day oral dose; background statement; cited from earlier work
calcium channel = conditions: background statement; cited from earlier work
in vivo = conditions: guinea pig, plasma, topical or ocular

Structure (SMILES): COc1ccc([C@@H]2Sc3ccccc3N(CCN(C)C)C(=O)[C@@H]2OC(C)=O)cc1 [diltiazem HCl, diltiazem hydrochloride]
- Intrinsic Permeability ([1]; hydrochloride): 1.66 ± 0.43 (cm/hr) × 10^-5
- permeability through skin / percutaneous absorption [2]: poor percutaneous absorption

Structure (SMILES): COc1ccc([C@@H]2Sc3cc(Cl)ccc3N(CCN(C)C)C(=O)[C@@H]2OC(C)=O)cc1 [TA-3090, (+)(2S,3S)-3-acetoxy-8-chloro-5-(2-dimethylaminoethyl)-2,3-dihydro-2-(4-methoxyphenyl)-1,5-benzothiazepin-4-(5H)-one]
- rate of administration from the transdermal delivery device [3]: 0.6 to 29.62 mcg/cm^2 /hr
- Papp ([4]; donor side pH 5): 1.81 ×10⁻⁶ cm/s
- Papp ([4]; donor side pH 7): 13.4 ×10⁻⁶ cm/s
- Papp ([4]; donor side pH 9): 30.6 ×10⁻⁶ cm/s
- Skin Permeation Rate ([4]; pH 5): 49.04 ± 8.76 mcg/cm^2 /hr
- Skin Permeation Rate ([4]; pH 7): 29.39 ± 11.61 mcg/cm^2 /hr
- Skin Permeation Rate ([4]; pH 9): 6.75 ± 1.54 mcg/cm^2 /hr
- solubility ([5]; donor side pH 5): 7730 ± 1130 µg/mL (≈ 17200 µM)
- solubility ([5]; donor side pH 7): 600 ± 20 µg/mL (≈ 1340 µM)
- solubility ([5]; donor side pH 9): 60 ± 4 µg/mL (≈ 134 µM)
- aqueous solubility [6]: improved
- oral absorption [7]: incomplete oral absorption
- vasodilating activity (calcium channel): potent vasodilating activity
- concentration at 4 h (in vivo): 11.4 ± 4.09 ng/mL
- concentration at 8 h (in vivo): 32.5 ± 4.56 ng/mL
- concentration at 24 h (in vivo): 75.6 ng/mL
- concentration at 48 h (in vivo): 71.1 ± 43.1 ng/mL

Structure (SMILES): COc1ccc([C@@H]2Sc3ccccc3N(CCN(C)C)C(=O)[C@@H]2OC(C)=O)cc1 [diltiazem free base, diltiazem]
- Intrinsic Permeability [1]: 186.96 ± 49.74 (cm/hr) × 10^-5
